The target of test [1] is T1, human FPRL2 (Homo sapiens, UniProt P25089).
T1 construct: expressed in transfected cells; host or cells: HEK293 (HEK293-hFPRL2-Gα16)
T1 sequence (P25089 1-353): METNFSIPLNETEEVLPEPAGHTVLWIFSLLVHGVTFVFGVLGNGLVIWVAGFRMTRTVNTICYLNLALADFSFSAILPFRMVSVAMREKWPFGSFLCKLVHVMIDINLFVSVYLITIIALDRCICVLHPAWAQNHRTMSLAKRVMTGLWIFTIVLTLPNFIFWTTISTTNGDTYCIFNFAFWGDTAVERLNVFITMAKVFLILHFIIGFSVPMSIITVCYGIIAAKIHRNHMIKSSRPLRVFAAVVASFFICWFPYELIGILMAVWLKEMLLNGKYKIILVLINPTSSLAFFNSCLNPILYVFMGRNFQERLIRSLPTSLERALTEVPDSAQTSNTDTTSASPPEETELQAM
As to the kind of experiment: Intracellular calcium measurements (FLIPR), agonistic activity in HEK293-hFPRL2-Gα16 cells. Format: cell-based. To be noted: Fluo-4 calcium FLIPR, normalized to GLY14-Humanin 100 nM. The gist of the method:
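Peak values after baseline subtraction are expressed relative to 100 nM Gly14-Humanin; compounds diluted in assay buffer from 10 mM DMSO stocks.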

Test [2] has as its target T2, human ALX receptor (Homo sapiens, UniProt P25090).
T2 construct: expressed in transfected cells; host or cells: HEK293 (HEK293-hALXR-Gα16)
T2 sequence (P25090 1-351): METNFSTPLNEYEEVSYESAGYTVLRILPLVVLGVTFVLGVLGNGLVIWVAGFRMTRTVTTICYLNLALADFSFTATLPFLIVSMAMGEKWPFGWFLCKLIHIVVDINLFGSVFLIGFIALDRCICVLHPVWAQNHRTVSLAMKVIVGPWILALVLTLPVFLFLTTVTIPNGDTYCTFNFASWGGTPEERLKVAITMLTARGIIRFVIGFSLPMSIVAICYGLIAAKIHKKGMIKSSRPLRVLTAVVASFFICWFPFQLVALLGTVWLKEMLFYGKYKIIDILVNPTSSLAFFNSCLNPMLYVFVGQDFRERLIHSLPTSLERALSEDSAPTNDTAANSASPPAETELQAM
As to the kind of experiment: Intracellular calcium measurements (FLIPR), agonistic activity in HEK293-hALXR-Gα16 cells. Format: cell-based. To be noted: Fluo-4 calcium FLIPR, normalized to WKYMVm 10 nM. Put shortly: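 HEK293 cells expressing hALXR and Gα16 were loaded with 1 μM Fluo-4 AM and 20 mM HEPES for 60 min at 37°C, then exposed to serially diluted compound. FLIPR fluorescence was read at ex 488/em 540 nm. Baseline-subtracted peak responses were normalized to 10 nM WKYMVm.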
On the technique in general: Calcium flux is commonly read through the fluorescence of an indicator in the cells.

Some results are limits rather than exact numbers.

As usually defined, the EC50 is the concentration at which the effect is half-maximal.

In the case of `O=C(NCCCCN1CCCC1)[C@H]1[C@H](C(=O)NCc2cnc(Br)s2)[C@@H]2C=C[C@H]1C21CC1` [Example 312, (5R)—N^5-(2-Bromo-thiazol-5-yl-methyl)-(6R)—N^6-(4-pyrrolidino-butyl)-(4S,7R)-[4,7-ethenylene-spiro[2.4]heptane]-5,6-dicarboxamide], the EC50 amounted to 208 nM in test [1] and 213 nM in test [2].
For `Cc1ccc(NC(=O)[C@H]2[C@H](C(=O)NCCC(N)=O)[C@H]3C=C[C@@H]2C32CC2)nc1` [Example 313, (5R)—N^5-(5-Methyl-pyridin-2-yl)-(6R)—N^6-(3-amino-3-oxopropyl)-(4S,7R)-[4,7-ethenylene-spiro[2.4]heptane]-5,6-dicarboxamide], the EC50 is more than 25000 nM in test [1] and 330 nM in test [2].
Regarding `O=C(NCCCCN1CCCC1)[C@H]1[C@H](C(=O)Nc2cc(F)c(Br)cc2F)[C@@H]2C=C[C@H]1C21CC1` [Example 314, (5R)—N^5-(4-Bromo-2,5-difluorophenyl)-(6R)—N^6-(4-pyrrolidino-butyl)-(4S,7R)-[4,7-ethenylene-spiro[2.4]heptane]-5,6-dicarboxamide], the results for the EC50 in test [1] and in test [2] were 204 nM and 103 nM, respectively.
For `O=C(NCCCCN1CCCC1)[C@H]1[C@H](C(=O)Nc2c(F)cc(Br)cc2F)[C@@H]2C=C[C@H]1C21CC1` [Example 315, (5R)—N^5-(4-Bromo-2,6-difluorophenyl)-(6R)—N^6-(4-pyrrolidino-butyl)-(4S,7R)-[4,7-ethenylene-spiro[2.4]heptane]-5,6-dicarboxamide], in that order: 296 nM and 9.4 nM.
The like results for `O=C(NCCCCN1CCCC1)[C@H]1[C@H](C(=O)Nc2ccc(Br)c(F)c2F)[C@@H]2C=C[C@H]1C21CC1` [Example 316, (5R)—N^5-(4-Bromo-2,3-difluorophenyl)-(6R)—N^6-(4-pyrrolidino-butyl)-(4S,7R)-[4,7-ethenylene-spiro[2.4]heptane]-5,6-dicarboxamide] were, in that order, 122 nM and 236 nM.
The like results for `O=C(NCCCCN1CCCC1)[C@H]1[C@H](C(=O)NCc2c(F)cc(Br)cc2F)[C@@H]2C=C[C@H]1C21CC1` [Example 317, (5R)—N^5-(4-Bromo-2,6-difluorophenyl-methyl)-(6R)—N^6-(4-pyrrolidin-1-yl-butyl)-(4S,7R)-[4,7-ethenylene-spiro[2.4]heptane]-5,6-dicarboxamide] were, in that order, 44 nM and 28 nM.
As to `O=C(NCCCCN1CCCC1)[C@H]1[C@H](C(=O)NCc2ccc(Br)cc2F)[C@@H]2CC[C@H]1C21CC1` [Example 318, (5R)—N^5-(4-Bromo-2-fluorophenyl-methyl)-(6R)—N^6-(4-pyrrolidino-butyl)-(4S,7R)-[4,7-ethylene-spiro[2.4]heptane]-5,6-dicarboxamide], the EC50 in test [1] amounted to 18 nM; in test [2], 13 nM.
For `NCCCCCNC(=O)[C@H]1[C@H](C(=O)NCc2ccc(Br)cc2F)[C@@H]2C=C[C@H]1C21CC1` [Example 319, (5R)—N^5-(4-Bromo-2-fluorophenyl-methyl)-(6R)—N^6-(5-amino-pentyl)-(4S,7R)-[4,7-ethenylene-spiro[2.4]heptane]-5,6-dicarboxamide], in that order: 331 nM and 55 nM.
With `NCCCCNC(=O)[C@H]1[C@H](C(=O)NCc2ccc(Br)cc2F)[C@@H]2C=C[C@H]1C21CC1` [Example 320, (5R)—N^5-(4-Bromo-2-fluorophenyl-methyl)-(6R)—N^6-(4-amino-butyl)-(4S,7R)-[4,7-ethenylene-spiro[2.4]heptane]-5,6-dicarboxamide], the EC50 in test [1] was 472 nM; in test [2], 52 nM.
For `O=C(NCCCCN1CCCC1)[C@H]1[C@H](C(=O)NCc2ccc(Br)c(F)c2)[C@@H]2C=C[C@H]1C21CC1` [Example 321, (5R)—N^5-(4-Bromo-3-fluorophenyl-methyl)-(6R)—N^6-(4-pyrrolidino-butyl)-(4S,7R)-[4,7-ethenylene-spiro[2.4]heptane]-5,6-dicarboxamide], the figures for the EC50 in test [1] and in test [2] were 15 nM and 117 nM, respectively.
